Reference: ChEMBL document CHEMBL5352400, “Design, synthesis and biological evaluation of novel coumarin derivatives as multifunctional ligands for the treatment of Alzheimer's disease” (Eur J Med Chem, 2022)
pIC50, pKi: −log10 of the molar value. Calls of active or inactive are those of the source. The rule behind the calls is not given here.

What was measured:
[1] = Cytotoxicity in human SH-SY5Y cells assessed as reduction in cell viability incubated for 48 hrs by MTT assay; assay type: toxicity, cell-based
[2] = Cytotoxicity in human HepG2 cells assessed as reduction in cell viability incubated for 48 hrs by MTT assay; assay type: toxicity, cell-based
Beta-secretase 1 [3] = target: T1, Beta-secretase 1 (Homo sapiens, UniProt P56817); test: Inhibition of recombinant human BACE1 using fluorogenic polypeptide Mca-SEVNLDAEFRK(Dpn)RRNH2 as substrate at 10 uM incubated for 60 mins by FRET assay relative to control
T1 sequence (P56817 whole entry): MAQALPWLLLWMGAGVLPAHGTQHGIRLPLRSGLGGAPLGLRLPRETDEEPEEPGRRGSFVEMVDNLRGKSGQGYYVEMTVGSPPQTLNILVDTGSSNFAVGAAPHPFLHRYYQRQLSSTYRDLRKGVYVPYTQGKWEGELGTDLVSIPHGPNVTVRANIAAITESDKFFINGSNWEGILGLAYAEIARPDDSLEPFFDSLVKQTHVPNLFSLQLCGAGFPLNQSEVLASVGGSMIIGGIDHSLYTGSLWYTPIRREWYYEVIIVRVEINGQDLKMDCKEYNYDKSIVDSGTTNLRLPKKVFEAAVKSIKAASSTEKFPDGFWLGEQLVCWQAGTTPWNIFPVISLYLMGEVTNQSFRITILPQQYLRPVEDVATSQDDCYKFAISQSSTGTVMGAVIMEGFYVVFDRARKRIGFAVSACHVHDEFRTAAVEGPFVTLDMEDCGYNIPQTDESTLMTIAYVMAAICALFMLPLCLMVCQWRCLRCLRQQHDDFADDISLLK

Cholinesterase = Cholinesterase (Equus caballus, UniProt P81908); test: Inhibition of equine serum BuChE using butylthiocholine iodine as substrate preincubated for 20 mins followed by substrate addition and measured after 20 mins by DTNB reagent based Ellman's method
Sequence of Cholinesterase (P81908 whole entry): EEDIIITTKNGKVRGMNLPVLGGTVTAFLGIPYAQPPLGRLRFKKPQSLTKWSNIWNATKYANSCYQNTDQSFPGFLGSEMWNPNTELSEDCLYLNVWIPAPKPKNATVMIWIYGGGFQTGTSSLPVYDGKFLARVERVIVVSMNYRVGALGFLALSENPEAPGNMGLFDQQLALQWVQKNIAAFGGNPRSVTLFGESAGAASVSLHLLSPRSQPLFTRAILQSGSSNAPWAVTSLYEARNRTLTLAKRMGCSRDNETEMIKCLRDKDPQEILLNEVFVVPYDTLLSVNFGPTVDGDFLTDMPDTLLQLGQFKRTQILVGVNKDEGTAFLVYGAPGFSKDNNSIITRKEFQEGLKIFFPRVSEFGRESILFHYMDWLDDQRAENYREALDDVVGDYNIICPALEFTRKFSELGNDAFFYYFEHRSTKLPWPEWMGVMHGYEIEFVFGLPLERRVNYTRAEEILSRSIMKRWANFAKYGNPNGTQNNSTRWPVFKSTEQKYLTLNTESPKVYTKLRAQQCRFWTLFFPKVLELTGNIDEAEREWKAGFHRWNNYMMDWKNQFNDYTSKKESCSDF

[4] = Selectivity index, ratio of IC50 for inhibition of equine serum BuChE to IC50 for inhibition of electric eel AChE
Acetylcholinesterase [5] = target: T2, Acetylcholinesterase (Electrophorus electricus, UniProt O42275); test: Inhibition of electric eel AChE using acetylthiocholine iodine as substrate preincubated for 20 mins followed by substrate addition and measured after 20 mins by DTNB reagent based Ellman's method
T2 sequence (O42275 whole entry): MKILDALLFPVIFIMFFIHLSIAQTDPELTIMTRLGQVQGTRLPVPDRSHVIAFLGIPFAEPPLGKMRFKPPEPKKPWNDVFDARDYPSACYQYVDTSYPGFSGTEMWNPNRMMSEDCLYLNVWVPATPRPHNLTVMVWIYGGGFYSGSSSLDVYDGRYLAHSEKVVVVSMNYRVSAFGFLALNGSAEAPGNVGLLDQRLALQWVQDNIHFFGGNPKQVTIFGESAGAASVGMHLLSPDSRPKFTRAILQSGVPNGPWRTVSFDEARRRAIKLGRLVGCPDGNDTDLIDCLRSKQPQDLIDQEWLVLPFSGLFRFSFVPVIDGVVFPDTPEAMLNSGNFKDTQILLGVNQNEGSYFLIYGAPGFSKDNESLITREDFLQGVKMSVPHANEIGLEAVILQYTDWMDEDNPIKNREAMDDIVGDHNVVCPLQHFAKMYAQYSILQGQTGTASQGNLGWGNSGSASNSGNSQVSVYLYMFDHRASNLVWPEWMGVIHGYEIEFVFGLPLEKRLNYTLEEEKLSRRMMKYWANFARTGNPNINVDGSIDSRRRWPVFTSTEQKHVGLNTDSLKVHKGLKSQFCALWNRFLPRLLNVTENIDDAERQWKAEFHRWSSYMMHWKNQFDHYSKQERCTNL

[6] = Effective permeability of the compound in PBS buffer at pH 7.4/EtOH buffer (7:3) incubated for 20 hrs by UV-plate spectroscopy based PAMPA-BBB assay
[7] = Cytotoxicity in human HL7702 cells assessed as reduction in cell viability incubated for 48 hrs by MTT assay; assay type: toxicity, cell-based; details: HL7702 (L02) cells
[8] = target: Acetylcholinesterase (Electrophorus electricus) (UniProt O42275); test: Competitive inhibition of electric eel AChE assessed as increase in slope using acetylthiocholine iodine as substrate preincubated for 20 mins followed by concentrations of substrate addition and measured after 20 mins by Lineweaver-Burk plot analysis; details: time 40.0 min
Sequence of Acetylcholinesterase (Electrophorus electricus) (O42275 24-633 limits assumed): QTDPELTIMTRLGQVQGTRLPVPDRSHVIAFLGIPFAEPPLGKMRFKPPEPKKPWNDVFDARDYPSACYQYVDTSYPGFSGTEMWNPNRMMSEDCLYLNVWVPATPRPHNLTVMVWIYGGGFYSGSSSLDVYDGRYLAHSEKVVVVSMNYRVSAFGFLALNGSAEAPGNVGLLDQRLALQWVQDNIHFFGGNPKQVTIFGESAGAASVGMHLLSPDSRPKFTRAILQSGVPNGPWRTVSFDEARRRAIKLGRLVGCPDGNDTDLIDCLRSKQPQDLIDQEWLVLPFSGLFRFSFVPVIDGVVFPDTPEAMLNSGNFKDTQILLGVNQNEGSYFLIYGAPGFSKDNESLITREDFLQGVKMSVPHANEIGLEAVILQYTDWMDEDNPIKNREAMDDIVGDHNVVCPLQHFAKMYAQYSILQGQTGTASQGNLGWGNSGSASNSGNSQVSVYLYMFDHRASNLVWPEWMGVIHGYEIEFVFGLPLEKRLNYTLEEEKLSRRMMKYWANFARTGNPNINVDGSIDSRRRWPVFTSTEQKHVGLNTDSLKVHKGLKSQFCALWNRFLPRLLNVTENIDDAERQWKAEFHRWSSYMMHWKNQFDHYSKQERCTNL

[9] = Acute toxicity in KM mouse assessed as body weight change upto 1000 mg/kg,ip and measured after 14 days; assay type: organism-based; details: in vivo, 336 h, time 14 day
Acetylcholinesterase [10] = target: T2, Acetylcholinesterase; test: Competitive inhibition of electric eel AChE assessed as dissociation constant using acetylthiocholine as substrate by Lineweaver-Burk plot analysis
[11] = Acute toxicity in KM mouse assessed as change in behavior upto 1000 mg/kg,ip and measured after 14 days; assay type: organism-based; details: in vivo, 336 h, time 14 day
[12] = Acute toxicity in KM mouse assessed as change in survival rate upto 1000 mg/kg,ip and measured after 14 days; assay type: organism-based; details: in vivo, 336 h, time 14 day
Beta-secretase 1 [13] = target: T1, Beta-secretase 1; test: Inhibition of recombinant human BACE1 using fluorogenic polypeptide Mca-SEVNLDAEFRK(Dpn)RRNH2 as substrate incubated for 60 mins by FRET assay
[14] = target: Glycogen synthase kinase-3 beta (Homo sapiens, UniProt P49841); test: Inhibition of GSK-3beta (unknown origin)
Sequence of Glycogen synthase kinase-3 beta (P49841 whole entry): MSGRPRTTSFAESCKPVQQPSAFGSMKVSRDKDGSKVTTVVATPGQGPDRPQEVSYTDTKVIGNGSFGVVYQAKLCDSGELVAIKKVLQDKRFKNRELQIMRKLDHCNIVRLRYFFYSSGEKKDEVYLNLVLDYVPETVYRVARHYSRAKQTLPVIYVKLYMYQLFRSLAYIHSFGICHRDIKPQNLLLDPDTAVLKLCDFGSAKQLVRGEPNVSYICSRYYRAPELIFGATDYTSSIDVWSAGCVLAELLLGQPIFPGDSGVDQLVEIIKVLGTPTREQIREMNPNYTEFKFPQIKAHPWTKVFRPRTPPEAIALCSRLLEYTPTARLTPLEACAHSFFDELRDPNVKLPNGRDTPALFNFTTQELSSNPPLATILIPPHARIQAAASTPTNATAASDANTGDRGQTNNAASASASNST

Beta-secretase 1 [15] = target: T1, Beta-secretase 1; test: Inhibition of BACE1 (unknown origin)

Compound | IC50 at 48 h [1] [µM] | IC50 at 48 h [2] [µM] | inhibition (Beta-secretase 1 [3]) [%] | pIC50 (Cholinesterase) | Ratio IC50 [4] | pIC50 (Acetylcholinesterase [5]) | Papp at 20 h [6] [×10⁻⁶ cm/s] | IC50 at 48 h [7] [µM] | inhibition [8] | Activity [9] | pKi (Acetylcholinesterase [10]) | Activity [11] | Activity [12] | pIC50 (Beta-secretase 1 [13]) | pIC50 [14] | pIC50 (Beta-secretase 1 [15])
N#Cc1cccc(CNC2CCN(CCCOc3cc(=O)oc4cc(-c5cccnc5)ccc34)CC2)c1 | 12.4 | 3.26 | 89.5 | < 4.30 | > 6.87 | 5.14 | – | – | – | – | – | – | – | – | – | –
O=c1cc(OCCCN2CCC(NCc3cccc(F)c3)CC2)c2ccc(-c3cccnc3)cc2o1 | 14.4 | 14.6 | 34 | 4.55 | 2.82 | 5.00 | – | – | – | – | – | – | – | – | – | –
Nc1c2c(nc3ccccc13)CCCC2 [TACRINE] | – | – | – | – | – | – | 8.04 | – | – | – | – | – | – | – | – | –
O=c1cc(OCCCN2CCOCC2)c2ccc(-c3cccnc3)cc2o1 | > 20 | > 20 | – | < 4.30 | > 3.19 | 4.81 | – | – | – | – | – | – | – | – | – | –
O=c1cc(OCCCN2CCC(NCc3ccc(F)cc3)CC2)c2ccc(-c3cccnc3)cc2o1 | 10.9 | > 20 | 22.1 | < 4.30 | > 1.93 | 4.59 | – | – | – | – | – | – | – | – | – | –
O=c1cc(OCCCNC2CCN(Cc3ccccc3)CC2)c2ccc(-c3ccc(F)nc3)cc2o1 | 5.75 | 3.93 | – | < 4.30 | > 29 | 5.76 | – | – | – | – | – | – | – | – | – | –
C[C@@]1(c2cc(-c3cncnc3)c(F)cc2F)CCSC(N)=N1 | – | – | 80.3 | – | – | – | – | – | – | – | – | – | – | – | – | –
O=c1cc(OCCCN2CCC(NCc3ccsc3)CC2)c2ccc(-c3cccnc3)cc2o1 | 14.2 | 14.1 | 64.7 | 5.00 | 3.03 | 5.48 | 15.4 | 36.2 | – | – | – | – | – | – | – | –
O=c1cc(OCCCNC2CCN(Cc3ccccc3)CC2)c2ccc(-c3cccnc3)cc2o1 | 10.7 | 10.2 | 86.8 | 4.49 | 24.6 | 5.88 | 22.8 | 34.7 | Active | Non-Toxic | 5.58 | Non-Toxic | Non-Toxic | 5.91 | – | –
O=c1cc(OCCCNC2CCN(Cc3ccccc3)CC2)c2ccc(-c3ccncc3)cc2o1 | 10.2 | 10.6 | – | < 4.30 | > 22.3 | 5.65 | – | – | – | – | – | – | – | – | – | –
CN(Cc1ccccc1)C1CCN(CCCOc2cc(=O)oc3cc(-c4ccc(F)cc4)ccc23)CC1 | 4.88 | 3.37 | 70.9 | < 4.30 | > 11 | 5.34 | – | – | – | – | – | – | – | – | – | –
O=c1cc(OCCCN2CCC(NCc3ccccc3)CC2)c2ccc(-c3ccncc3)cc2o1 | 16.4 | 13.9 | 49.4 | < 4.30 | > 2.97 | 4.77 | – | – | – | – | – | – | – | – | – | –
COc1ccc(CNC2CCN(CCCOc3cc(=O)oc4cc(-c5cccnc5)ccc34)CC2)cc1 | 6.81 | 9.12 | 82 | 4.95 | 0.982 | 4.94 | – | – | – | – | – | – | – | – | – | –
COc1cccc(/C=N/C2CCN(Cc3ccccc3)CC2)c1OC | – | – | – | – | – | – | – | – | – | – | – | – | – | – | < 4.82 | –
O=c1cc(OCCCN2CCC(NCc3ccccc3F)CC2)c2ccc(-c3cccnc3)cc2o1 | 19.1 | 15.1 | – | < 4.30 | > 4.31 | 4.94 | – | – | – | – | – | – | – | – | – | –
O=c1cc(OCCCN2CCC(NCc3ccccc3)CC2)c2ccc(-c3cccnc3)cc2o1 | > 20 | > 20 | 51.4 | 4.67 | 2.3 | 5.03 | – | – | – | – | – | – | – | – | – | –

Compound | IC50 at 48 h [1] [µM] | IC50 at 48 h [2] [µM] | inhibition (Beta-secretase 1 [3]) [%] | pIC50 (Cholinesterase) | Ratio IC50 [4] | pIC50 (Acetylcholinesterase [5]) | Papp at 20 h [6] [×10⁻⁶ cm/s] | IC50 at 48 h [7] [µM] | inhibition [8] | Activity [9] | pKi (Acetylcholinesterase [10]) | Activity [11] | Activity [12] | pIC50 (Beta-secretase 1 [13]) | pIC50 [14] | pIC50 (Beta-secretase 1 [15])
Cc1ccc(CNC2CCN(CCCOc3cc(=O)oc4cc(-c5cccnc5)ccc34)CC2)cc1 | 16.5 | 9.93 | 36.4 | 4.79 | 1.15 | 4.85 | – | – | – | – | – | – | – | – | – | –
CN(Cc1ccccc1)C1CCN(CCCOc2cc(=O)oc3cc(-c4ccc(F)nc4)ccc23)CC1 | 15.6 | 10.4 | 61.3 | < 4.30 | > 12.3 | 5.39 | – | – | – | – | – | – | – | – | – | –
O=c1cc(OCCCNC2CCN(Cc3ccccc3)CC2)c2ccc(-c3ccc(F)cc3)cc2o1 | 6.69 | 9.14 | – | < 4.30 | > 1.46 | 4.46 | – | – | – | – | – | – | – | – | – | –
O=c1cc(OCCCN2CCC(NCc3cccc([N+](=O)[O-])c3)CC2)c2ccc(-c3cccnc3)cc2o1 | 8.37 | 9.29 | 46.1 | < 4.30 | > 1.37 | 4.44 | – | – | – | – | – | – | – | – | – | –
O=c1cc(OCCCN2CCC(CNCc3ccccc3F)CC2)c2ccc(-c3cccnc3)cc2o1 | 6.49 | 4.26 | 67.2 | 4.51 | 2.91 | 4.97 | – | – | – | – | – | – | – | – | – | –
O=c1cc(OCCCNC2CCN(Cc3ccccc3)CC2)c2ccc(-c3ccnc(F)c3)cc2o1 | 5.56 | 5.95 | – | < 4.30 | > 23.4 | 5.67 | – | – | – | – | – | – | – | – | – | –
O=c1cc(OCCCN2CCC(NCc3ccccc3)CC2)c2ccc(-c3ccc(F)nc3)cc2o1 | 12.2 | 8.49 | – | 4.35 | 12.5 | 5.45 | – | – | – | – | – | – | – | – | – | –
O=C(Nc1cc(-c2ccc3c(OCCCNC4CCN(Cc5ccccc5)CC4)cc(=O)oc3c2)ccn1)C1CC1 | 3.41 | 3.65 | 30.9 | < 4.30 | > 7.41 | 5.17 | – | – | – | – | – | – | – | – | – | –
COc1cccc(CNC2CCN(CCCOc3cc(=O)oc4cc(-c5cccnc5)ccc34)CC2)c1 | 19.3 | 11.4 | 48.8 | 4.95 | > 4.03 | 4.91 | – | – | – | – | – | – | – | – | – | –
O=C(Nc1cc(-c2ccc3c(OCCCN4CCC(NCc5ccccc5)CC4)cc(=O)oc3c2)ccn1)C1CC1 | 1.87 | 3.34 | 34.7 | 4.54 | 2.99 | 5.01 | – | – | – | – | – | – | – | – | – | –
CC(C)=CC(O)C/C(C)=C/COc1c2ccoc2cc2oc(=O)ccc12 (configuration not stated) [NOTOPTEROL] | > 20 | > 20 | 10.2 | < 4.00 | – | < 4.00 | – | – | – | – | – | – | – | 4.58 | 6.00 | 4.58
O=c1cc(OCCCN2CCC(NCc3ccccc3)CC2)c2ccc(Br)cc2o1 | > 20 | 11.8 | 72.8 | 4.45 | 1.58 | 4.64 | – | – | – | – | – | – | – | – | – | –
Cc1cccc(CNC2CCN(CCCOc3cc(=O)oc4cc(-c5cccnc5)ccc34)CC2)c1 | 12 | 13.1 | – | 4.73 | 1.12 | 4.78 | – | – | – | – | – | – | – | – | – | –
O=c1cc(OCCCN2CCC(NCc3ccc(F)c(F)c3)CC2)c2ccc(-c3cccnc3)cc2o1 | 5.36 | 9.72 | 93.8 | 4.64 | 1.78 | 4.90 | 9.4 | 8.05 | – | – | – | – | – | 5.74 | – | –
O=C(Nc1cc(-c2ccc3c(OCCCNC4CCN(Cc5ccccc5)CC4)cc(=O)oc3c2)ccn1)c1ccccc1 | 1.5 | 1.91 | – | < 4.30 | > 3.7 | 4.87 | – | – | – | – | – | – | – | – | – | –
